Results: ChEMBL document CHEMBL1132522, “A new potent inhibitor of fungal melanin biosynthesis identified through combinatorial chemistry” (Bioorg Med Chem Lett, 1999)

System: Oryza sp.
Test: Compound was evaluated for protecting rice plants from infestation by blast upon foliar application.
Format: functional

Question: `C[C@@H](NC(=O)[C@]1(C(F)(F)F)C[C@](C)(Cl)C1)c1ccc(Br)cc1` (stereo in doubt; 3b) was tested. Which ED90 did it give?
Answer: 40 p.p.m.

Target: T1, Scytalone dehydratase (Magnaporthe oryzae (strain 70-15 / FGSC 8958) (Rice blast fungus)(Pyricularia oryzae), UniProt P56221)
T1 sequence (P56221 whole entry): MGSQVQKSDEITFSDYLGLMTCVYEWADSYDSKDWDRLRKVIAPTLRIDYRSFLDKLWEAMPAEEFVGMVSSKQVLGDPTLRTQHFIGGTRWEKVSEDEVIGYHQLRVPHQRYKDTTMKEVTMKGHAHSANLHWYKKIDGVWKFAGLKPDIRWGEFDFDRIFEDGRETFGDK
Test: Inhibitory activity against Scytalone dehydratase
Parameters: species or system Pyricularia grisea

Question: For `C[C@@H](NC(=O)C1(C(F)(F)F)CC(C)(Cl)C1)c1ccc(Br)cc1` (some centres not stated), which Ki is on record?
Answer: 0.049 nM

Question: For `C[C@@H](NC(=O)[C@]1(C(F)(F)F)C[C@](C)(Cl)C1)c1ccc(Br)cc1` (stereo in doubt; 3b), which Ki is on record?
Answer: 0.026 nM

Question: How did the Ki turn out when `C[C@@H](NC(=O)[C@]1(C(F)(F)F)C[C@](C)(Cl)C1)c1ccc(Br)cc1` (stereo in doubt; 3a) was run?
Answer: 2.3 nM

Question: For `C[C@H](COc1ccccc1F)NC(=O)C1(C(F)(F)F)CC(C)(Cl)C1` (some centres not stated), which Ki is on record?
Answer: 0.78 nM

Question: For `CC(NC(=O)C1(C(F)(F)F)CC(C)(Cl)C1)c1ccc(Oc2ccccc2)cc1` (configuration not stated), which Ki is on record?
Answer: 5.6 nM

Question: How did the Ki turn out when `CC(CCc1ccccc1)NC(=O)C1(C(F)(F)F)CC(C)(Cl)C1` (configuration not stated) was run?
Answer: 8.6 nM
